Among the data in PubChem BioAssay (NCI) are TGI values, retold here.

Test systems include SK-MEL-5 melanoma; SK-OV-3 ovarian; RXF 393 renal; NCI-H460 lung; EKVX NSCLC; OVCAR-3 ovarian; MDA-N; HL-60(TB) leukemia; A498 renal; 786-0 renal; HOP-62 NSCLC; DU-145 prostate; SW-620 colon; SF-539 CNS; SR leukemia; BT-549 breast.
Experiment in all cases: NCI-60 cell line screen, 48 h

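Following 48 hours of exposure in 96-well plates, responses at five concentrations were used to interpolate endpoints linearly. The concentration for full growth arrest is given as TGI.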

In the case of `O[C@@]1(C#Cc2ccc3c(c2)OCO3)CCC[C@H]1NCc1ccccc1`, the TGI in the assay with SK-MEL-5 melanoma is 36.2 µM; in the assay with SK-OV-3 ovarian, greater than 100 µM; in the assay on RXF 393 renal, 86.2 µM; in the assay with NCI-H460 lung it was 69 µM; in the assay with EKVX NSCLC, greater than 100 µM; in the assay on OVCAR-3 ovarian, 47.4 µM. The TGI with MDA-N is 32.5 µM; with HL-60(TB) leukemia it was 39.1 µM; in the assay on A498 renal, 92.5 µM; in the assay with 786-0 renal, 31.3 µM; in the assay with HOP-62 NSCLC, 78.2 µM; in the assay on DU-145 prostate, greater than 100 µM. Moreover, the TGI in the assay with SW-620 colon was greater than 100 µM; with SF-539 CNS it was 39.5 µM; in the assay on SR leukemia it was 50.7 µM.
Turning to `N=c1oc2ccccc2cc1C(=O)Nc1cccc2ccccc12`, the TGI in the assay on SK-MEL-5 melanoma, in the assay on SK-OV-3 ovarian, with RXF 393 renal, in the assay on NCI-H460 lung, in the assay with OVCAR-3 ovarian and with MDA-N was greater than 100 µM in each case. For the same compound, the TGI with HL-60(TB) leukemia, in the assay with A498 renal, in the assay on 786-0 renal, in the assay with HOP-62 NSCLC, in the assay on DU-145 prostate and in the assay with BT-549 breast was greater than 100 µM in each case. For the same compound, the TGI with SW-620 colon, with SF-539 CNS and with SR leukemia was greater than 100 µM in each case.
Consider `O=C(Sc1c(-c2ccccc2)c(=O)n(-c2ccccc2)c(=S)n1-c1ccccc1)c1ccccc1`, for which the TGI in the assay on SK-MEL-5 melanoma, in the assay on SK-OV-3 ovarian, with NCI-H460 lung, with EKVX NSCLC, in the assay with OVCAR-3 ovarian and in the assay on MDA-N was greater than 100 µM each time. Also, the TGI in the assay with HL-60(TB) leukemia, in the assay on 786-0 renal, with HOP-62 NSCLC, in the assay on DU-145 prostate, in the assay on BT-549 breast and with SW-620 colon was greater than 100 µM in each case. The same compound came in with a TGI in the assay on SR leukemia greater than 100 µM.
As to `C/C(O)=C(\C=N\C(=S)N=Nc1c(O)[nH]c2ccccc12)C(=O)Nc1ccccc1C`, the TGI in the assay on SK-MEL-5 melanoma, with SK-OV-3 ovarian, in the assay on RXF 393 renal, in the assay on NCI-H460 lung, in the assay on EKVX NSCLC and in the assay on OVCAR-3 ovarian was greater than 100 µM in each case. Further, the TGI in the assay on MDA-N, in the assay on HL-60(TB) leukemia, in the assay with A498 renal, with 786-0 renal, in the assay on HOP-62 NSCLC and with DU-145 prostate was greater than 100 µM in each case. Also, the TGI in the assay with BT-549 breast, in the assay on SW-620 colon and in the assay on SF-539 CNS was greater than 100 µM throughout.
Turning to `O=C1CSC(c2ccccc2O)N1c1ccc2c(c1)Oc1c(Cl)c3c(c(Cl)c1=N2)Oc1cc(N2C(=O)CSC2c2ccccc2O)ccc1N=3` (centres undefined), the TGI was greater than 100 µM in the assay on SK-MEL-5 melanoma; 71.3 µM in the assay on SK-OV-3 ovarian; 44.5 µM with RXF 393 renal; greater than 100 µM in the assay on NCI-H460 lung; greater than 100 µM in the assay on EKVX NSCLC; greater than 100 µM with OVCAR-3 ovarian. The TGI with MDA-N, in the assay with HL-60(TB) leukemia, with A498 renal, with 786-0 renal, with HOP-62 NSCLC and in the assay on DU-145 prostate was greater than 100 µM each time. The TGI in the assay with SW-620 colon, in the assay on SF-539 CNS and in the assay on SR leukemia was greater than 100 µM each time.
In the case of `CCCCN=NNc1cn(C2OC(CO)C(O)C2O)c(=O)[nH]c1=O` (centres undefined), the TGI in the assay with SK-MEL-5 melanoma, in the assay with SK-OV-3 ovarian, with RXF 393 renal, in the assay with NCI-H460 lung, in the assay with EKVX NSCLC and with OVCAR-3 ovarian was greater than 100 µM each time. The TGI in the assay on MDA-N, in the assay with HL-60(TB) leukemia, in the assay on A498 renal, in the assay with 786-0 renal, in the assay with HOP-62 NSCLC and with DU-145 prostate was greater than 100 µM in each case. Moreover, the TGI with SW-620 colon, in the assay on SF-539 CNS and in the assay on SR leukemia was greater than 100 µM in each case.
Consider `COC(=O)c1cc(CC2Cc3cc4c(cc3C2=O)CCC4)cc2c1CCC2` (centres undefined), for which the TGI in the assay on SK-OV-3 ovarian, in the assay on NCI-H460 lung, in the assay on EKVX NSCLC, in the assay with OVCAR-3 ovarian, in the assay with MDA-N and in the assay with HL-60(TB) leukemia was greater than 100 µM throughout. The TGI in the assay with A498 renal, in the assay on 786-0 renal, in the assay with HOP-62 NSCLC, in the assay on DU-145 prostate, with BT-549 breast and with SW-620 colon was greater than 100 µM throughout. The TGI in the assay on SF-539 CNS and with SR leukemia was greater than 100 µM throughout.
On to `O=C1Nc2ccc(Br)cc2/C1=N/S(=O)(=O)O`, for which the TGI in the assay on SK-MEL-5 melanoma is 29.6 µM; in the assay with SK-OV-3 ovarian, greater than 100 µM; in the assay on RXF 393 renal, greater than 100 µM; in the assay with NCI-H460 lung, greater than 100 µM; in the assay on EKVX NSCLC, 85.7 µM; with OVCAR-3 ovarian, greater than 100 µM. In addition, the TGI is 26.6 µM in the assay with MDA-N; 46.7 µM in the assay on HL-60(TB) leukemia; greater than 100 µM in the assay on A498 renal; 68.2 µM in the assay on 786-0 renal; greater than 100 µM in the assay with HOP-62 NSCLC; greater than 100 µM with DU-145 prostate. For the same compound, the TGI in the assay with BT-549 breast and with SW-620 colon was greater than 100 µM in each case.
With `Cc1ccc2[nH]c3c(c(=O)n(C)c(=O)n3C)c2c1`, the TGI with SK-MEL-5 melanoma, in the assay with SK-OV-3 ovarian, in the assay with EKVX NSCLC, in the assay on MDA-N, in the assay with HL-60(TB) leukemia and with A498 renal was greater than 100 µM in each case. The TGI in the assay on 786-0 renal, in the assay on HOP-62 NSCLC, with DU-145 prostate, with BT-549 breast, in the assay with SW-620 colon and in the assay with SF-539 CNS was greater than 100 µM each time. This compound also yielded a TGI in the assay on SR leukemia greater than 100 µM.
